From ChEMBL document CHEMBL3885861, “Open TG-GATES”

Species on record: Rattus norvegicus
Assay: Open TG-GATES - Regimen: Daily Repeat
Assay type: toxicity, organism-based, Sprague-Dawley
Set-up: regimen Daily Repeat, gender Male, age 6 weeks
Details: in vivo, po, route gavage; for APTT / Bas / Eos / Fbg / Ht / Lym / MCHC / MCV / Mono / PT / Plat / RBC / Ret / WBC: tissue Blood; for KIDNEY_L / KIDNEY_R / KIDNEY_TOTAL: tissue Kidney; for LIVER: tissue Liver; for ALP / ALT / AST / BUN / CRE / Ca / Cl / DBIL / IP / LDH / Na / PL / RALB / TBIL / TC / TG / TP / gamma-GTP: tissue Plasma
[1] = 0 mg/kg, 72 h, dose level Control, time 3 day
[2] = 0 mg/kg, […], dose level Control, time 7 day
[3] = 0 mg/kg, […], dose level Control, time 14 day
[4] = 0 mg/kg, […], dose level Control, time 28 day
[5] = 40 mg/kg, 72 h, dose level Low, time 3 day
[6] = 40 mg/kg, […], dose level Low, time 7 day
[7] = 40 mg/kg, […], dose level Low, time 14 day
[8] = 40 mg/kg, […], dose level Low, time 28 day

## CC(C)N(CCC(C(N)=O)(c1ccccc1)c1ccccn1)C(C)C (stereo not given) [DISOPYRAMIDE]
[1]
  TERMINAL_BW: 230.2 g
  APTT: 22 s
  Bas: 0%
  Eos: 1.2%
  Fbg: 325.2 mg/dL
  Ht: 39.9%
  Lym: 76.8%
  MCHC: 32%
  MCV: 64.5 fL
  Mono: 2.8%
  PT: 15.8 s
  Plat: 130.4 x10_4/uL
  RBC: 617.8 x10_4/ul
  Ret: 7.1%
  WBC: 99.7 x10_2/uL
  KIDNEY_L: 1 g
  KIDNEY_R: 1 g
  KIDNEY_TOTAL: 2 g
  LIVER: 11 g
  ALP: 1742 IU/L
  ALT: 49.6 IU/L
  AST: 80.8 IU/L
  BUN: 17.6 mg/dL
  CRE: 0.2 mg/dL
  Ca: 10.6 mg/dL
  Cl: 107.2 meq/L
  DBIL: 0 mg/dL
  IP: 7.5 mg/dL
  LDH: 201.8 IU/L
  Na: 143 meq/L
  PL: 140.4 mg/dL
  RALB: 2.9 g/dL
  TBIL: 0 mg/dL
  TC: 71.6 mg/dL
  TG: 88 mg/dL
  TP: 5.5 g/dL
  gamma-GTP: 2 IU/L
[2]
  TERMINAL_BW: 265.2 g
  APTT: 21.6 s
  Bas: 0%
  Eos: 0.8%
  Fbg: 324 mg/dL
  Ht: 39.9%
  Lym: 78%
  MCHC: 32.1%
  MCV: 62.4 fL
  Mono: 2%
  PT: 16.2 s
  Plat: 116.2 x10_4/uL
  RBC: 639.4 x10_4/ul
  Ret: 6.7%
  WBC: 90.3 x10_2/uL
  KIDNEY_L: 1.1 g
  KIDNEY_R: 1.1 g
  KIDNEY_TOTAL: 2.3 g
  LIVER: 13.2 g
  ALP: 1665 IU/L
  ALT: 44 IU/L
  AST: 70.8 IU/L
  BUN: 19 mg/dL
  CRE: 0.2 mg/dL
  Ca: 10.6 mg/dL
  Cl: 106.6 meq/L
  DBIL: 0 mg/dL
  IP: 7.8 mg/dL
  LDH: 199.2 IU/L
  Na: 143.2 meq/L
  PL: 158.6 mg/dL
  RALB: 3 g/dL
  TBIL: 0 mg/dL
  TC: 81.4 mg/dL
  TG: 133.6 mg/dL
  TP: 5.6 g/dL
  gamma-GTP: 2 IU/L
[3]
  TERMINAL_BW: 303.7 g
  APTT: 25.1 s
  Bas: 0%
  Eos: 1%
  Fbg: 319.4 mg/dL
  Ht: 41.9%
  Lym: 80.8%
  MCHC: 33%
  MCV: 58.7 fL
  Mono: 2%
  PT: 15.7 s
  Plat: 113.2 x10_4/uL
  RBC: 715 x10_4/ul
  Ret: 4.4%
  WBC: 124.4 x10_2/uL
  KIDNEY_L: 1.2 g
  KIDNEY_R: 1.3 g
  KIDNEY_TOTAL: 2.5 g
  LIVER: 13.6 g
  ALT: 41.8 IU/L
  AST: 68 IU/L
  BUN: 18.6 mg/dL
  CRE: 0.1 mg/dL
  Ca: 10.3 mg/dL
  Cl: 104.8 meq/L
  DBIL: 0 mg/dL
  IP: 7 mg/dL
  LDH: 142.2 IU/L
  Na: 142.2 meq/L
  PL: 146.4 mg/dL
  RALB: 3 g/dL
  TBIL: 0.004 mg/dL
  TC: 71.2 mg/dL
  TG: 138.2 mg/dL
  TP: 5.7 g/dL
  gamma-GTP: 2.2 IU/L
[4]
  TERMINAL_BW: 406.5 g
  APTT: 24.9 s
  Bas: 0%
  Eos: 1%
  Fbg: 317 mg/dL
  Ht: 42.9%
  Lym: 80%
  MCHC: 33.5%
  MCV: 56.9 fL
  Mono: 2.2%
  PT: 15.7 s
  Plat: 100.4 x10_4/uL
  RBC: 755.2 x10_4/ul
  Ret: 3.4%
  WBC: 136.1 x10_2/uL
  KIDNEY_L: 1.6 g
  KIDNEY_R: 1.6 g
  KIDNEY_TOTAL: 3.1 g
  LIVER: 17.8 g
  ALP: 1292.8 IU/L
  ALT: 36.8 IU/L
  AST: 62.8 IU/L
  BUN: 17.4 mg/dL
  CRE: 0.2 mg/dL
  Ca: 10.4 mg/dL
  Cl: 105 meq/L
  DBIL: 0 mg/dL
  IP: 6.8 mg/dL
  LDH: 199.4 IU/L
  Na: 140.6 meq/L
  PL: 145.4 mg/dL
  RALB: 3.1 g/dL
  TBIL: 0.006 mg/dL
  TC: 70.6 mg/dL
  TG: 181.6 mg/dL
  TP: 6.1 g/dL
  gamma-GTP: 2.2 IU/L
[5]
  TERMINAL_BW: 231.5 g
  APTT: 20.9 s
  Bas: 0%
  Eos: 1.2%
  Fbg: 313.2 mg/dL
  Ht: 39.2%
  Lym: 81.8%
  MCHC: 32.1%
  MCV: 63.9 fL
  Mono: 2.2%
  PT: 16 s
  Plat: 113.5 x10_4/uL
  RBC: 614.4 x10_4/ul
  Ret: 6.2%
  WBC: 87.7 x10_2/uL
  KIDNEY_L: 1.1 g
  KIDNEY_R: 1.1 g
  KIDNEY_TOTAL: 2.1 g
  LIVER: 10.8 g
  ALP: 1494 IU/L
  ALT: 45.4 IU/L
  AST: 75.4 IU/L
  BUN: 15.4 mg/dL
  CRE: 0.2 mg/dL
  Ca: 10.8 mg/dL
  Cl: 107.8 meq/L
  DBIL: 0 mg/dL
  IP: 7.6 mg/dL
  LDH: 188.2 IU/L
  PL: 146.8 mg/dL
  RALB: 3 g/dL
  TBIL: 0 mg/dL
  TC: 73.4 mg/dL
  TG: 122.4 mg/dL
  TP: 5.4 g/dL
  gamma-GTP: 1.8 IU/L
[6]
  TERMINAL_BW: 254.3 g
  APTT: 20.5 s
  Bas: 0%
  Eos: 0.8%
  Fbg: 323.8 mg/dL
  Ht: 40%
  Lym: 83%
  MCHC: 32.7%
  MCV: 61.2 fL
  Mono: 1.8%
  PT: 15.9 s
  Plat: 122.2 x10_4/uL
  RBC: 654 x10_4/ul
  Ret: 6.2%
  WBC: 120.7 x10_2/uL
  KIDNEY_L: 1 g
  KIDNEY_R: 1.1 g
  KIDNEY_TOTAL: 2.1 g
  LIVER: 11.6 g
  ALP: 1528.8 IU/L
  ALT: 48.2 IU/L
  AST: 72.2 IU/L
  BUN: 16.4 mg/dL
  CRE: 0.1 mg/dL
  Ca: 10.4 mg/dL
  Cl: 106.8 meq/L
  DBIL: 0.002 mg/dL
  IP: 7.7 mg/dL
  LDH: 149.8 IU/L
  Na: 143.2 meq/L
  PL: 141.6 mg/dL
  RALB: 2.9 g/dL
  TBIL: 0 mg/dL
  TC: 73.4 mg/dL
  TG: 115.6 mg/dL
  TP: 5.4 g/dL
  gamma-GTP: 1.8 IU/L
[7]
  TERMINAL_BW: 308.2 g
  APTT: 23.9 s
  Bas: 0%
  Eos: 1%
  Fbg: 310.6 mg/dL
  Ht: 41.1%
  Lym: 80.6%
  MCHC: 32.8%
  MCV: 59.7 fL
  Mono: 2.2%
  PT: 15.3 s
  Plat: 109 x10_4/uL
  RBC: 688.2 x10_4/ul
  Ret: 4.9%
  WBC: 113.4 x10_2/uL
  KIDNEY_L: 1.3 g
  KIDNEY_R: 1.3 g
  KIDNEY_TOTAL: 2.6 g
  LIVER: 14.7 g
  ALP: 1255.8 IU/L
  ALT: 47.8 IU/L
  AST: 75 IU/L
  BUN: 16.8 mg/dL
  CRE: 0.2 mg/dL
  Ca: 10.4 mg/dL
  Cl: 104.8 meq/L
  DBIL: 0 mg/dL
  IP: 7.6 mg/dL
  LDH: 225 IU/L
  Na: 141.6 meq/L
  PL: 147 mg/dL
  RALB: 3.1 g/dL
  TBIL: 0.01 mg/dL
  TC: 73.6 mg/dL
  TG: 131 mg/dL
  TP: 5.7 g/dL
  gamma-GTP: 2.2 IU/L
[8]
  TERMINAL_BW: 375 g
  APTT: 25.5 s
  Bas: 0%
  Eos: 1.2%
  Fbg: 320.2 mg/dL
  Ht: 43.3%
  Lym: 81%
  MCHC: 33.8%
  MCV: 55.7 fL
  Mono: 2.2%
  PT: 15.4 s
  Plat: 110.5 x10_4/uL
  RBC: 776.4 x10_4/ul
  Ret: 2.6%
  WBC: 121.1 x10_2/uL
  KIDNEY_L: 1.4 g
  KIDNEY_R: 1.4 g
  KIDNEY_TOTAL: 2.7 g
  LIVER: 16 g
  ALP: 1094 IU/L
  ALT: 40 IU/L
  AST: 64.6 IU/L
  BUN: 17.4 mg/dL
  CRE: 0.2 mg/dL
  Ca: 10.5 mg/dL
  Cl: 106.4 meq/L
  DBIL: 0 mg/dL
  IP: 6.3 mg/dL
  LDH: 158.6 IU/L
  Na: 140.6 meq/L
  PL: 158 mg/dL
  RALB: 3.1 g/dL
  TBIL: 0.004 mg/dL
  TC: 70 mg/dL
  TG: 205 mg/dL
  TP: 6.1 g/dL
  gamma-GTP: 2.2 IU/L
120 mg/kg, 72 h, dose level Middle, time 3 day
  TERMINAL_BW: 227.1 g
